Assay results reported in patent publication US12486489B2, “Culture medium for testing drug resistance of H.pylori as well as preparation method and use thereof” (priority 2022, dated 2025).

Assays:
H. pylori [1] = test: Effects of NiCl2 on H. pylori on culture medium (50 mL Colombian culture medium with 80 mg urea and 0.4 mg phenol red); type: cell-based, Helicobacter pylori; set-up: key to bacteria growth and discoloration: +: refers to a good bacteria growth after 36 hours of culture, with a discoloration; ++: refers to a good bacteria growth after 36 hours of culture, with an obvious discoloration; conditions: for bacteria growth and discoloration: 36 hours of culture
H. pylori [2] = test: Effects of urea and phenol red on H. pylori on Columbia culture medium; type: cell-based, Helicobacter pylori; conditions: for bacterial growth: 1 × 10^6 CFU/mL; for effect on the growth of H. pylori: strains G27 and 287, 72 hours

## [Cl][Ni][Cl] [NiCl2, nickel chloride]
H. pylori [1]; NiCl2 100 μmol/L
  recognition of the discoloration reaction: has reached its maximum
H. pylori [1]; NiCl2 1 μMol/L to 200 μMol/L, 80 mg urea, 0.4 mg phenol red, pH 7.15 to 7.35
  sensitivity and identification of the discoloration reaction: the sensitivity and identification of the discoloration reaction are further improved
H. pylori [1]; strain 159, NiCl2 1 μmol/L
  bacteria growth and discoloration: +
H. pylori [1]; strain 159, NiCl2 10 μmol/L
  bacteria growth and discoloration: +
H. pylori [1]; strain 159, NiCl2 100 μmol/L
  bacteria growth and discoloration: ++
H. pylori [1]; strain 161, NiCl2 1 μmol/L
  bacteria growth and discoloration: +
H. pylori [1]; strain 161, NiCl2 10 μmol/L
  bacteria growth and discoloration: +
H. pylori [1]; strain 161, NiCl2 100 μmol/L
  bacteria growth and discoloration: ++
H. pylori [1]; strain 162, NiCl2 1 μmol/L
  bacteria growth and discoloration: +
H. pylori [1]; strain 162, NiCl2 10 μmol/L
  bacteria growth and discoloration: +
H. pylori [1]; strain 162, NiCl2 100 μmol/L
  bacteria growth and discoloration: ++
H. pylori [1]; strain 163, NiCl2 1 μmol/L
  bacteria growth and discoloration: +
H. pylori [1]; strain 163, NiCl2 10 μmol/L
  bacteria growth and discoloration: +
H. pylori [1]; strain 163, NiCl2 100 μmol/L
  bacteria growth and discoloration: ++
H. pylori [1]; strain 286, NiCl2 1 μmol/L
  bacteria growth and discoloration: +
H. pylori [1]; strain 286, NiCl2 10 μmol/L
  bacteria growth and discoloration: +
H. pylori [1]; strain 286, NiCl2 100 μmol/L
  bacteria growth and discoloration: ++
H. pylori [1]; strain 287, NiCl2 1 μmol/L
  bacteria growth and discoloration: +
H. pylori [1]; strain 287, NiCl2 10 μmol/L
  bacteria growth and discoloration: +
H. pylori [1]; strain 287, NiCl2 100 μmol/L
  bacteria growth and discoloration: ++
H. pylori [1]; strain 289, NiCl2 1 μmol/L
  bacteria growth and discoloration: +
H. pylori [1]; strain 289, NiCl2 10 μmol/L
  bacteria growth and discoloration: +
H. pylori [1]; strain 289, NiCl2 100 μmol/L
  bacteria growth and discoloration: ++
H. pylori [1]; strain 290, NiCl2 1 μmol/L
  bacteria growth and discoloration: +
H. pylori [1]; strain 290, NiCl2 10 μmol/L
  bacteria growth and discoloration: +
H. pylori [1]; strain 290, NiCl2 100 μmol/L
  bacteria growth and discoloration: ++
H. pylori [1]; strain 26695, NiCl2 1 μmol/L
  bacteria growth and discoloration: +
H. pylori [1]; strain 26695, NiCl2 10 μmol/L
  bacteria growth and discoloration: +
H. pylori [1]; strain 26695, NiCl2 100 μmol/L
  bacteria growth and discoloration: ++
H. pylori [1]; strain G27, NiCl2 1 μmol/L
  bacteria growth and discoloration: +
H. pylori [1]; strain G27, NiCl2 10 μmol/L
  bacteria growth and discoloration: +
H. pylori [1]; strain G27, NiCl2 100 μmol/L
  bacteria growth and discoloration: ++

## NC(N)=O [Urea, urea]
H. pylori [2]; in 50 mL Colombian culture medium
  maximum value of added urea without affecting the growth of H. pylori: 80 mg
H. pylori [2]; strain 159, urea 60 mg
  bacterial growth: ++
H. pylori [2]; strain 159, urea 80 mg
  bacterial growth: ++
H. pylori [2]; strain 159, urea 100 mg
  bacterial growth: +
H. pylori [2]; strain 159, urea 120 mg
  bacterial growth: +
H. pylori [2]; strain 159, urea 240 mg
  bacterial growth: −
H. pylori [2]; strain 161, urea 60 mg
  bacterial growth: ++
H. pylori [2]; strain 161, urea 80 mg
  bacterial growth: ++
H. pylori [2]; strain 161, urea 100 mg
  bacterial growth: +
H. pylori [2]; strain 161, urea 120 mg
  bacterial growth: +
H. pylori [2]; strain 161, urea 240 mg
  bacterial growth: −
H. pylori [2]; strain 162, urea 60 mg
  bacterial growth: ++
H. pylori [2]; strain 162, urea 80 mg
  bacterial growth: ++
H. pylori [2]; strain 162, urea 100 mg
  bacterial growth: +
H. pylori [2]; strain 162, urea 120 mg
  bacterial growth: +
H. pylori [2]; strain 162, urea 240 mg
  bacterial growth: −
H. pylori [2]; strain 163, urea 60 mg
  bacterial growth: ++
H. pylori [2]; strain 163, urea 80 mg
  bacterial growth: ++
H. pylori [2]; strain 163, urea 100 mg
  bacterial growth: +
H. pylori [2]; strain 163, urea 120 mg
  bacterial growth: +
H. pylori [2]; strain 163, urea 240 mg
  bacterial growth: −
H. pylori [2]; strain 286, urea 60 mg
  bacterial growth: ++
H. pylori [2]; strain 286, urea 80 mg
  bacterial growth: ++
H. pylori [2]; strain 286, urea 100 mg
  bacterial growth: +
H. pylori [2]; strain 286, urea 120 mg
  bacterial growth: +
H. pylori [2]; strain 286, urea 240 mg
  bacterial growth: −
H. pylori [2]; strain 287, urea 60 mg
  bacterial growth: ++
H. pylori [2]; strain 287, urea 80 mg
  bacterial growth: ++
H. pylori [2]; strain 287, urea 100 mg
  bacterial growth: +
H. pylori [2]; strain 287, urea 120 mg
  bacterial growth: +
H. pylori [2]; strain 287, urea 240 mg
  bacterial growth: −
H. pylori [2]; strain 289, urea 60 mg
  bacterial growth: ++
H. pylori [2]; strain 289, urea 80 mg
  bacterial growth: ++
H. pylori [2]; strain 289, urea 100 mg
  bacterial growth: +
H. pylori [2]; strain 289, urea 120 mg
  bacterial growth: +
H. pylori [2]; strain 289, urea 240 mg
  bacterial growth: −
H. pylori [2]; strain 290, urea 60 mg
  bacterial growth: ++
H. pylori [2]; strain 290, urea 80 mg
  bacterial growth: ++
H. pylori [2]; strain 290, urea 100 mg
  bacterial growth: +
H. pylori [2]; strain 290, urea 120 mg
  bacterial growth: +
H. pylori [2]; strain 290, urea 240 mg
  bacterial growth: −
H. pylori [2]; strain 26695, urea 60 mg
  bacterial growth: ++
H. pylori [2]; strain 26695, urea 80 mg
  bacterial growth: ++
H. pylori [2]; strain 26695, urea 100 mg
  bacterial growth: +
H. pylori [2]; strain 26695, urea 120 mg
  bacterial growth: +
H. pylori [2]; strain 26695, urea 240 mg
  bacterial growth: −
H. pylori [2]; strain G27, urea 60 mg
  bacterial growth: ++
H. pylori [2]; strain G27, urea 80 mg
  bacterial growth: ++
H. pylori [2]; strain G27, urea 100 mg
  bacterial growth: +
H. pylori [2]; strain G27, urea 120 mg
  bacterial growth: +
H. pylori [2]; strain G27, urea 240 mg
  bacterial growth: −
H. pylori [2]; urea 60 mg in 50 mL Colombian culture medium
  effect on the growth of H. pylori: no effect on the growth of H. pylori
H. pylori [2]; urea 120 mg to 240 mg in 50 mL Colombian culture medium
  effect on the growth of H. pylori: the growth is not good
